Measured values taken from patent publication US20240150401A1, “INSECT NEUROPEPTIDES 7” (Solasta Bio Limited, priority 2022, published 2024).

Tests used:
Assay type in all cases: in vivo
bees = assay: Bee oral toxicity test (adapted from OECD Test No. 247: Bumblebee, Acute Oral Toxicity Test); details: 96 hours after application, compared to Imidacloprid (FIG. 9)
Description: Bee oral testing protocol was carried out adapted from OECD Test No. 247: Bumblebee, Acute Oral Toxicity Test. The toxicity of SB-P-66 was compared with a negative control of sucrose or vehicle, and with a current commercial insecticide Imidacloprid.

Myzus persicae aphids = assay: Leaf dip assay (IRAC susceptibility test method 019), mortality assessment; details: unformulated, mortality assessed at 72, 96 and 120 hours, compared to vehicle and Spirotetramat (FIGS. 6-8)
Description: The assay was carried out based on IRAC susceptibility test method 019 (https://irac-online.org/methods/aphids-adultnymphs/).
Fill a small 4 cm wide 3 cm high dish with a 1% agar treatment solution of the active chemical or control (ensuring 1 cm gap between the agar and the lid) and leave to set. Dip a 2.5 cm leaf disc into 3 ml of treatment solution allowing the treatment to coat the leaf. Leave the disc to dry for 1 hour and place onto the set agar. Place insects (Myzus persicae aphids) onto each of the leaf discs. Each unit is sealed with a close-fitting, ventilated lid. Place the agar dishes in a small plastic tray lined with moist tissue paper and ensure the water trays in the bottom of the incubator are filled with clean water and place within the incubator. An assessment of mortality is made at 72, 96 and 120 hours. Leaf dip assays were performed with SB-P-66, and compared to a negative control vehicle and a current commercial insecticide Spirotetramat. The activity of SB-P-66 is shown in FIGS. 6 and 7; SB-P-66 has good activity whilst being eco-friendly and targeted to specific pests unlike broad spectrum chemical insecticides such as Spirotetramat.

Aphis fabae = assay: Field trials on vining peas (PGRO); details: unformulated, naturally infested, comparable to commercial insecticides (FIGS. 10, 13)
Description: (§1) Field trials for peptide SB-P-66, unformulated, against various insects were conducted by third-party organisations PGRO and AgriScience.

[1] = system: Amrasca biguttula (leaf hopper); assay: Field trials; details: unformulated; naturally infested; over time; comparable to commercial insecticides (FIG. 14)
Description: as §1

Myzus persicae = assay: Field trials; details: unformulated; comparable to commercial insecticides
Description: as §1

Aphis gossypii = assay: Field trials on cotton and melon (AgriScience); details: unformulated, naturally infested, comparable to commercial insecticides (FIGS. 11, 12)
Description: as §1

H-PAFSSWG-NH2 [SB-P-66, [Hy]-PAFSSWG-[NH2]]
bee oral toxicity (% survival) (bees): far lower toxicity
activity against Myzus persicae (mortality) (Myzus persicae aphids): good activity
efficacy in field trials against Aphis fabae (Aphis fabae): good efficacy
efficacy in field trials against Amrasca biguttula [1]: good efficacy
efficacy in field trials against Myzus persicae (Myzus persicae): good efficacy
efficacy in field trials against Aphis gossypii (Aphis gossypii): good efficacy
